Tests used:
Assay type in all cases: functional
Homo sapiens [1] = organism: Homo sapiens; experiment: Ability to inhibit human complement-mediated erythrocyte lysis by classical pathway
Homo sapiens [2] = organism: Homo sapiens; experiment: Ability to inhibit human complement-mediated erythrocyte lysis by alternate pathway
Homo sapiens [3] = organism: Homo sapiens; experiment: Ability to inhibit human complement-mediated erythrocyte lysis by classical pathway at 2000 uM concentration

SMILES	IH50 (Homo sapiens [1]) [µM]	IH50 (Homo sapiens [2]) [µM]	inhibition at 2000 µM (Homo sapiens [3]) [%]
COc1ccc(C(=O)O)c2c1CC(C)(C1CC[C@](C)(O)C(O)C1)O2 (stereo not given in full)	1600	>2550	–
C=C(Cc1c(OC)ccc(C(=O)O)c1O)C1CC[C@](C)(O)C(O)C1 (stereo not given in full)	–	–	24
C[C@@H]1CCC2C(C)(C)[C@H](O)[C@H](O)C[C@]2(C)[C@@]12Cc1c(O)cc(C(=O)[O-])c(C=O)c1O2.[Na+] (stereo not given in full)	570	850	–

Reference: ChEMBL document CHEMBL1128844, “The design, synthesis and evaluation of A,C,D-ring analogs of the fungal metabolite K-76 as complement inhibitors: a potential probe for the absolute stereochemistry at position 2” (1995)
